Data as given in patent US8993542B2, “Methods of treating viral infections” (priority 2008, dated 2015).

Experiments:
[1] = tested on: CEM T-lymphocytic cells or MAGI-CCR5 cells; assay: Cytotoxicity of two-drug combinations; conditions: 10 μM highest test concentration
Protocol: The anti-HIV-1 activity of CMX157 is evaluated in two-drug combination studies with twenty-four different FDA-approved anti-HIV inhibitors. Each two-drug combination is tested three times in CEM T-lymphocytic cells or MAGI-CCR5 cells acutely infected with the laboratory-adapted strain HIV-1IIIB or HIV-1Ba-L, respectively. Viral growth/inhibition is evaluated by measuring virus-induced cytopathic effects (CPE) in CEM cells or by β-galactosidase reporter gene induction in MAGI-CCR5 cells at the experimental endpoint. The cytotoxicity of each two-drug combination is also evaluated in parallel with the antiviral evaluations. The concentrations of CMX157 used in these evaluations are selected in order to test a broad range of concentrations and to provide as complete a dose response curve as possible under the limitations of eight total concentrations. […] The “positive antagonism control” of d4T (stavudine) in combination with RBV was tested in parallel with each of the assays that were performed. Analysis of drug interactions for each of the two-drug combinations is performed using the Prichard and Shipman MacSynergy II three-dimensional model for statistical evaluation of combination assays.

HIV-1IIIB = assay: TCID50 determination of drug-treated HIV-1IIIB; format: cell-based; design: TCID50, XTT Endpoint / TCID50, RT Endpoint / TCID50, P24 Endpoint: unit not given here
[2] = 500 nM, compound removal at 1 minute
[3] = 500 nM, compound removal at 15 minutes
[4] = 500 nM, compound removal at 30 minutes
[5] = 500 nM, compound removal at 60 minutes
[6] = 500 nM, compound removal at 120 minute
[7] = virus treated 15 minutes with 0.039 nM drug
[8] = virus treated 15 minutes with 0.125 nM drug
[9] = virus treated 15 minutes with 0.39 nM drug
[10] = virus treated 15 minutes with 1.25 nM drug
[11] = virus treated 15 minutes with 3.9 nM drug
[12] = virus treated 15 minutes with 12.5 nM drug
[13] = virus treated 15 minutes with 39.1 nM drug
[14] = virus treated 15 minutes with 125 nM drug

CCCCCCCCCCCCCCCCOCCCOP(=O)(O)CO[C@H](C)Cn1cnc2c(N)ncnc21 [CMX157, Hexadecyloxypropyl-9-R-[2-(Phosphonomethoxy)Propyl]-Adenine]
synergistic cytotoxicity [1]: no evidence of synergistic cytotoxicity
Fold Decrease From VC, P24 Endpoint (HIV-1IIIB; [2]): (8.0) Fold
Fold Decrease From VC, RT Endpoint (HIV-1IIIB; [2]): (5.2) Fold
Fold Decrease From VC, XTT Endpoint (HIV-1IIIB; [2]): (2.2) Fold
TCID50, P24 Endpoint (HIV-1IIIB; [2]): 4529
TCID50, RT Endpoint (HIV-1IIIB; [2]): 25588
TCID50, XTT Endpoint (HIV-1IIIB; [2]): 2014
Fold Decrease From VC, P24 Endpoint (HIV-1IIIB; [3]): (5.7) Fold
Fold Decrease From VC, RT Endpoint (HIV-1IIIB; [3]): (3.6) Fold
Fold Decrease From VC, XTT Endpoint (HIV-1IIIB; [3]): (4.0) Fold
TCID50, P24 Endpoint (HIV-1IIIB; [3]): 6398
TCID50, RT Endpoint (HIV-1IIIB; [3]): 18115
TCID50, XTT Endpoint (HIV-1IIIB; [3]): 1132
Fold Decrease From VC, P24 Endpoint (HIV-1IIIB; [4]): (2.0) Fold
Fold Decrease From VC, RT Endpoint (HIV-1IIIB; [4]): (2.8) Fold
Fold Decrease From VC, XTT Endpoint (HIV-1IIIB; [4]): (2.0) Fold
TCID50, P24 Endpoint (HIV-1IIIB; [4]): 18115
TCID50, RT Endpoint (HIV-1IIIB; [4]): 22805
TCID50, XTT Endpoint (HIV-1IIIB; [4]): 2014
Fold Decrease From VC, P24 Endpoint (HIV-1IIIB; [5]): (4.0) Fold
Fold Decrease From VC, RT Endpoint (HIV-1IIIB; [5]): (3.4) Fold
Fold Decrease From VC, XTT Endpoint (HIV-1IIIB; [5]): (2.5) Fold
TCID50, P24 Endpoint (HIV-1IIIB; [5]): 9058
TCID50, RT Endpoint (HIV-1IIIB; [5]): 25588
TCID50, XTT Endpoint (HIV-1IIIB; [5]): 1600
Fold Decrease From VC, P24 Endpoint (HIV-1IIIB; [6]): (5.7) Fold
Fold Decrease From VC, RT Endpoint (HIV-1IIIB; [6]): (3.2) Fold
Fold Decrease From VC, XTT Endpoint (HIV-1IIIB; [6]): (4.0) Fold
TCID50, P24 Endpoint (HIV-1IIIB; [6]): 6398
TCID50, RT Endpoint (HIV-1IIIB; [6]): 25588
TCID50, XTT Endpoint (HIV-1IIIB; [6]): 1132
concentrations resulting in reduced infectivity (HIV-1IIIB; 15 minutes incubation): ≥ 3.9 nM
reduction of viral replication (HIV-1IIIB; 1000, 500, 250 or 125 nM, 2 hours): 2-4 fold
Fold Decrease From VC, P24 Endpoint (HIV-1IIIB; [7]): (0) Fold
Fold Decrease From VC, RT Endpoint (HIV-1IIIB; [7]): (1.0) Fold
Fold Decrease From VC, XTT Endpoint (HIV-1IIIB; [7]): (1.1) Fold
TCID50, P24 Endpoint (HIV-1IIIB; [7]): 36337
TCID50, RT Endpoint (HIV-1IIIB; [7]): 157772
TCID50, XTT Endpoint (HIV-1IIIB; [7]): 16145
Fold Decrease From VC, P24 Endpoint (HIV-1IIIB; [8]): (0) Fold
Fold Decrease From VC, RT Endpoint (HIV-1IIIB; [8]): (1.1) Fold
Fold Decrease From VC, XTT Endpoint (HIV-1IIIB; [8]): (1.1) Fold
TCID50, P24 Endpoint (HIV-1IIIB; [8]): 30411
TCID50, RT Endpoint (HIV-1IIIB; [8]): 144887
TCID50, XTT Endpoint (HIV-1IIIB; [8]): 16145
Fold Decrease From VC, P24 Endpoint (HIV-1IIIB; [9]): (1.4) Fold
Fold Decrease From VC, RT Endpoint (HIV-1IIIB; [9]): (1.6) Fold
Fold Decrease From VC, XTT Endpoint (HIV-1IIIB; [9]): (1.4) Fold
TCID50, P24 Endpoint (HIV-1IIIB; [9]): 21529
TCID50, RT Endpoint (HIV-1IIIB; [9]): 102336
TCID50, XTT Endpoint (HIV-1IIIB; [9]): 12795
Fold Decrease From VC, P24 Endpoint (HIV-1IIIB; [10]): (0) Fold
Fold Decrease From VC, RT Endpoint (HIV-1IIIB; [10]): (1.6) Fold
Fold Decrease From VC, XTT Endpoint (HIV-1IIIB; [10]): (2.0) Fold
TCID50, P24 Endpoint (HIV-1IIIB; [10]): 30411
TCID50, RT Endpoint (HIV-1IIIB; [10]): 102336
TCID50, XTT Endpoint (HIV-1IIIB; [10]): 9058
Fold Decrease From VC, P24 Endpoint (HIV-1IIIB; [11]): (2.0) Fold
Fold Decrease From VC, RT Endpoint (HIV-1IIIB; [11]): (1.6) Fold
Fold Decrease From VC, XTT Endpoint (HIV-1IIIB; [11]): (4.0) Fold
TCID50, P24 Endpoint (HIV-1IIIB; [11]): 15207
TCID50, RT Endpoint (HIV-1IIIB; [11]): 102336
TCID50, XTT Endpoint (HIV-1IIIB; [11]): 4529
Fold Decrease From VC, P24 Endpoint (HIV-1IIIB; [12]): (5.6) Fold
Fold Decrease From VC, RT Endpoint (HIV-1IIIB; [12]): (1.6) Fold
Fold Decrease From VC, XTT Endpoint (HIV-1IIIB; [12]): (4.0) Fold
TCID50, P24 Endpoint (HIV-1IIIB; [12]): 5383
TCID50, RT Endpoint (HIV-1IIIB; [12]): 102336
TCID50, XTT Endpoint (HIV-1IIIB; [12]): 4529
Fold Decrease From VC, P24 Endpoint (HIV-1IIIB; [13]): (4.0) Fold
Fold Decrease From VC, RT Endpoint (HIV-1IIIB; [13]): (2.5) Fold
Fold Decrease From VC, XTT Endpoint (HIV-1IIIB; [13]): (3.6) Fold
TCID50, P24 Endpoint (HIV-1IIIB; [13]): 7604
TCID50, RT Endpoint (HIV-1IIIB; [13]): 64570
TCID50, XTT Endpoint (HIV-1IIIB; [13]): 5082
Fold Decrease From VC, P24 Endpoint (HIV-1IIIB; [14]): (4.0) Fold
Fold Decrease From VC, RT Endpoint (HIV-1IIIB; [14]): (2.5) Fold
Fold Decrease From VC, XTT Endpoint (HIV-1IIIB; [14]): (4.5) Fold
TCID50, P24 Endpoint (HIV-1IIIB; [14]): 7604
